# Results taken from patent US10604739B2, “Cardiomyocyte production” (Cellular Dynamics International, Inc., priority 2009, dated 2020).
# Where “and” joins values, the source holds several entries; their conditions need not be identical. Equal entries are not always repeated.
# Experiments:
# Type in all cases: cell-based, human
# [1] = system: iPS6.1 cells; assay: iPS6.1 Four Corners experiment, FGF x HGF cardiac induction
# Description: (§1) Aggregate formation and cardiac induction procedures of those iPS cells at different initial densities were performed essentially the same as described in Examples 4 except different concentrations of human HGF (hHGF) and FGF were applied to Aggregate Formation Medium, Aggregate Transition Medium and Cardiac Induction Medium.
# Concurrent with the second iPS growth factor titration, a simple experiment (Table 19) was set up with iPS6.1 cells to test the 2×2 matrix of 0 and 25 ng/mL FGF and 0 and 50 ng/mL HGF. The positive concentrations of FGF and HGF were chosen based on the current best practices for iPS6.1 cells at the time and were identical to the conditions used for cardiac induction of H1 cells in both the plated and suspension processes. This experiment confirmed previous work showing the necessity of FGF for the process.
# [2] = system: iPS6.1-MRB cells; assay: iPS-MRB 1 L spinner qualification runs with and without HGF; settings: for CM/L (millions) / Purity (% RFP+): +HGF, 1 L spinner flask
# Description: IPS-MRB cells were maintained on Matrigel™ in TeSR medium (from Stem Cell Technologies) no later than when they would normally be ready to be passaged. IPS cells were grown in T-150 flasks throughout this example, but can be scaled for starting cells in other culture formats. Five T-150 flasks of iPS cells were harvested: media were aspirated and cells were incubated with 12 mL room temperature TrypLe™ (Invitrogen), a recombinant typsin-like enzyme, at 37° C. for 7 minutes. The cells were then transferred to five 50 ml conical tubes (one tube for each T-150 flask) containing 12 ml DMEM/F12 (GIBCO) with 10% fetal calf serum (FCS) (Chemicon). The cells were then pelleted at 1200 rpm for 5 minutes and supernatant aspirated. The pellet was resuspended in 10 mL aggregate promotion medium (TeSR medium containing 25 μg/ml Gentamicin, 1 μM H1152, and with or without 50 ng/ml human recombinant HGF). The resuspended pellet were combined into a single 250 ml conical tube (allowing volume for later dilution), if necessary. Cells were counted using CEDEX HiRES cell counter and then diluted to 1.0×10^6 cells/mL. Each 500 mL diluted cell stock was dispensed into one 1 L spinner flask (leaving room in spinner flasks for later dilution) and the flasks were placed on magnetic stir platform with a speed of 50 RPM (both side caps were loosed by two full turns to allow gas transfer).
# On the next day (Day 1), flasks containing the cells were set in cell culture hood and suspended aggregate allowed to settle to the bottom of the flasks for 30 minutes. The spent media were aspirated using a 2 mL aspirating pipet with approximately 100 mL left in the flasks (if films of cells form on bottom after setting, shake flask back and forth in each direction to break them up before adding medium). Aggregate transition medium (50% TeSR medium, 45% DMEM containing GlutaMax™, 5% ES-qualified FCS, 25 μg/ml Gentamicin, 1 μM H1152, and with or without 50 ng/ml HGF) were added to the flasks using Pipeline machine to bring to the original volume. The flasks were returned to the stirring platform inside a 7% CO2 incubator and the agitator was started to operate at 50±1 RPM (both side caps were loosed by two full turns to allow gas transfer).
# On Day 2, flasks containing the cells were set in cell culture hood and suspended aggregate allowed to settle to the bottom of the flasks for 15 minutes. The spent media were aspirated with approximately 100 mL left in the flasks. Aggregate suspension were gently mixed in flasks, and cardiac induction medium (90% TeSR medim, 10% ES-qualified FCS, 25 μg/ml Gentamicin, 50 ng/ml human recombinant bFGF, and with or without 50 ng/ml human recombinant HGF) were added to each flask to 1 L (2× dilution) with Pipeline machine. The flasks were returned to the stirring platform inside a 7% CO2 incubator and the agitator was started to operate at 50±1 RPM (both side caps were loosed by two full turns to allow gas transfer).
# On Day 3, flasks containing the cells were set in cell culture hood and suspended aggregate allowed to settle to the bottom of the flasks for 15 minutes. The spent media were aspirated with approximately 100 mL left in the flasks. Spinner flasks were shaken back and forth to break large clumps. Cardiac induction medium were added back to each flask to bring back to the original volume for Days 3-7; cardiac maintenance medium were exchanged instead for Days 8, 10, 12. After every media exchange, the flasks were returned to the stirring platform inside a 7% CO2 incubator and the agitator was started to operate at 50±1 RPM (both side caps were loosed by two full turns to allow gas transfer).
# Cell cultures were analyzed on Day 14 by total cell counting per flask at harvest, cTNT or RFP purity at harvest. Aggregate count was also carried on Day 2 and final stage and aggregate pictures were taken.
# Three qualification runs were performed to confirm at large scale and with iPS6.1-MRB cells that removal of HGF has no measurable effect. […]
# [3] = system: iPS6.1 cells; assay: iPS6.1 Growth Factor Titration #1; settings: HGF 0, 5, 20, 50, 150 ng/mL
# Description: as §1
# Conditions without FGF had virtually no surviving aggregates and no measurable cardiomyocytes (FIGS. 29A-B). On the other hand, all conditions with FGF yielded cardiomyocytes independent of HGF concentration (FIGS. 29A-B).
# [4] = system: iPS6.1 cells; assay: iPS6.1 Growth Factor Titration #2; settings: HGF 0, 20, 50 ng/mL, best performing FGF concentration conditions
# Description: as §1
# Based on the results of the first experiment (see FIGS. 29A-B), the second iPS6.1 growth factor titration focused on the lower dose range for both FGF and HGF (FIGS. 30A-B). […] However, it is important to note that in no case did the omission of HGF lead to the failure of a condition which was otherwise successful in the presence of HGF.
# [5] = system: H9-TGZ cells; assay: H9-TGZ Growth Factor Titration #2 (repeat); settings: FIGS. 32A-C
# Description: as §1
# Due to the issues with aggregate formation noted above, the H9-TGZ growth factor titration experiment was repeated. […] However, it is important to note that despite the overall poor performance of the cultures, the usual and expected decrease in performance at low FGF level was still discernable (FIGS. 32A-C).
substance,measurement,setting,value
"HGF: human recombinant HGF (hepatic growth factor), R&D systems",input iPS:CM,"[1]; iPS6.1 cells, 25 ng/mL FGF and/or 50 ng/mL HGF, single T25 flask, day 14",6725
same,% cTNT+,"[1]; iPS6.1 cells, 25 ng/mL FGF and/or 50 ng/mL HGF, single T25 flask, day 14, listed as HGF only",0% and 1.5% and 7%
same,Overall culture efficiency,[1]; inclusion of HGF (50 ng/mL) together with FGF (25 ng/mL) versus FGF alone,reduced overall culture efficiency
same,Effect of HGF addition on yields,"[2]; ""normal"" run, 1 L spinner",no effect
same,CM/L (millions),"[2]; Run #1 (Jun. 6, 2009)",48.9 millions
same,Purity (% RFP+),"[2]; Run #1 (Jun. 6, 2009)",6.6%
same,CM/L (millions),"[2]; Run #2 (Jun. 10, 2009)",17.5 millions
same,Purity (% RFP+),"[2]; Run #2 (Jun. 10, 2009)",3.7%
same,CM/L (millions),"[2]; Run #3 (Jun. 14, 2009)",10.0 millions
same,Purity (% RFP+),"[2]; Run #3 (Jun. 14, 2009)",2.6%
same,Trend in cardiomyocyte yield or iPS:CM ratio across HGF concentrations,[3],no consistent trend in cardiomyocyte yield or iPS:CM ratio
same,Trend of productivity with HGF concentration,[4],productivity increased with higher HGF concentrations
same,Trend of culture performance across HGF concentrations,[5],no observable trend of culture performance
